Experimental data: article PMC7217877, “N-AS-triggered SPMs are direct regulators of microglia in a model of Alzheimer’s disease” (Nature Communications, 2020)
“And” between values parts separate entries of the source, which are not always exact repeats. Identical values can stand only once. Like-named read-outs stand apart in the source and are kept apart here.

Tests used:
[1] = system: neuron; test: N-AS generation in primary cultured cells (LC-MS/MS); type: cell-based, C57BL/6 mice; parameters: N-AS quantification (Fig 3a): dose or concentration left out as unconfirmed; conditions: replicates
Protocol: (§1) Reactions were quenched by adding equal volume of cold methanol. A 100 μl aliquot of the reaction mixture was mixed with 30 μl of distilled water containing 5 ng ml^−1 of furosemide (internal standard) for 1 min and vigorously mixed with […] of ethyl acetate for 20 min. After centrifugation at 16,000×g for 10 min, the mixtures were kept for 2 h for freezing aqueous phase. The upper ethyl acetate layer was transferred to a clean tube and evaporated to dryness under a gentle stream of nitrogen. Then, the dried extract was reconstituted in 100 µl of mobile phase and 10 µl aliquot of the solution was injected into an Agilent 6470 Triple Quad LC–MS/MS system (Agilent, Wilmington, DE) coupled with an Agilent 1260 HPLC system. Separation was performed on a Synergy Polar RP column (4 μm particle size, 2.0 mm × 150 mm, Phenomenex) using a mobile phase that consisted of methanol and water (95:5, v/v) with 0.1% formic acid at a flow rate of 0.2 ml min^−1. Quantification was carried out using multiple reaction monitoring (MRM) at m/z 340.3→263.3 for N-AS and m/z 328.9→284.8 for furosemide (internal standard) in negative ionization mode and collision energy of 20 eV. […] Also, to confirm N-AS generation in neurons, microglia, and astrocytes, these cells were treated with Aβ, and sonicated in neuronal and glial culture medium. […] To evaluate N-AS in microglia and neurons in vivo, the cells were isolated from WT mice, APP/PS1 mice and APP/PS1 mice treated with N-AS at 9 months of age. The cells were sonicated and resuspended in glial and neuronal culture medium, respectively. A 100 μl aliquot of each cell lysate were used for the determination of N-AS using a method previously described.
(§2) To confirm the generation and roles of N-AS in neurons, cells from E18 C57BL/6 mice were prepared as previously described. Cortices were dissected and then dissociated followed by incubation in papain (Worthington) at 37 °C for 15 min. […] Aβ 1–42 (10 μM, 24 h, Invitrogen, 03112) was exposed to neurons and the cells were analyzed for the generation and roles of N-AS. […]

[2] = system: immortalized human microglia; test: N-AS generation in human microglia (LC-MS/MS, Supplementary Fig 6a); type: cell-based
Protocol: as §1, §2

[3] = single-dose brain PK and brain distribution; type: in vivo, C57BL/6 mice; conditions: mouse; for Kp / MRT / half-life / AUC(0-inf) / AUC(0-t): C57BL/6, brain; for AUC(0-inf): read-out: AUCinf (Brain); for AUC(0-t): read-out: AUClast (Brain)
Protocol: C57BL/6 mice were administered N-AS (Sigma-Aldrich, 01912) at doses of 1 mg kg^−1 (i.v.) or 10 mg kg^−1 (p.o.). Venous blood samples were collected at 5, 15, and 30 min, and 1, 2, 4, 8, and 24 h postdose. A 30 μl of plasma was separated from whole blood by centrifugation and stored at −80 °C until analysis. Also, brain samples were collected at 1, 2, 4, and 24 h postdose and heart, liver, and kidney samples were collected at 24 h postdose, thoroughly rinsed with physiological saline and weighed. Twenty percentage of tissue homogenates were prepared by homogenizing the tissue samples with four volumes of saline. A 30 μl aliquot of plasma or a 50 μl aliquot of tissue homogenates were deproteinized by addition of 200 μl cold methanol (containing naringenin as internal standard at 20 ng ml^−1) and centrifuged at 15,974×g for 10 min. A 10 μl aliquot of the supernatant was injected into Agilent 6470 LC-MS/MS system. Separation was performed on a Synergy Polar RP column (4 μm particle size, 2.0 mm ×150 mm, Phenomenex) using a mobile phase that consisted of methanol and water (85:15, v/v) with 0.1% formic acid at a flow rate of 0.2 ml min^−1. Quantification was carried out using multiple reaction monitoring (MRM) at m/z 340.3→263.3 for N-AS and m/z 271.1→151.3 for naringenin (internal standard) in negative ionization mode and collision energy of 20 eV. p, and relative oral BA values were calculated as follows: BA% = AUCp.o. normalized by p.o. dose/AUCi.v. normalized by i.v. dose × 100.

CC(=O)SCCNC(=O)CCNC(=O)[C@H](O)C(C)(C)COP(=O)(O)OP(=O)(O)OC[C@H]1O[C@@H](n2cnc3c(N)ncnc32)[C@H](O)[C@@H]1OP(=O)(O)O [Acetyl-CoA, acetyl-CoA]
N-AS quantification (Fig 3g) ([1]; Ab + supplement): 0.4129 and 0.455 and 0.2582 and 0.5811 and 0.497
N-AS generation in human microglia ([2]; Ab 50mM + Acetyl CoA 100mM, sFig 6a): 10.5625 and 12.1817 and 11.3721 and 11.7769
N-AS generation, acetyl-S565 COX2 and SPM secretion, in words ([2]; Aβ-treated human microglia + acetyl-CoA): restored

CCCCCCCCCCCCC/C=C/[C@@H](O)[C@H](CO)NC(C)=O [N-AS, N-((2S,3R,E)-1,3-Dihydroxyoctadec-4-en-2-yl)acetamide]
Kp ([3]; iv, i.v. 1 mg/kg): 2.16
MRT ([3]; iv, i.v. 1 mg/kg): 6.94 ± 0.62 h
half-life ([3]; iv, i.v. 1 mg/kg): 6.31 ± 0.38 h
AUC(0-inf) ([3]; iv, i.v. 1 mg/kg): 1440 ± 228 ng·h/mL
AUC(0-t) ([3]; iv, i.v. 1 mg/kg): 1340 ± 224 ng·h/mL
Kp ([3]; po, p.o. 10 mg/kg): 3.18
MRT ([3]; po, p.o. 10 mg/kg): 8.64 ± 1.01 h
half-life ([3]; po, p.o. 10 mg/kg): 22 ± 6.07 h
AUC(0-inf) ([3]; po, p.o. 10 mg/kg): 1750 ± 362 ng·h/mL
AUC(0-t) ([3]; po, p.o. 10 mg/kg): 895 ± 60.5 ng·h/mL
Cmax (Brain) ([3]; i.v. 1 mg/kg): 165.18 ± 18.42 ng/mL
Cmax (Brain) ([3]; p.o. 10 mg/kg): 90.27 ± 2.95 ng/mL

Ab: Aβ 1–42 (Invitrogen, 03112) used to induce an AD environment in cells
N-AS quantification (Fig 3g) ([1]; Ab, no supplement): 0.5069 and 0.4708 and 0.3905 and 0.3625 and 0.4347
N-AS quantification (Fig 3a) ([1]; Ab): 0.5349 and 0.246 and 0.4789 and 0.3905 and 0.3625 and 0.4347
N-AS generation, in words ([2]; Aβ-treated human microglia): reduction of N-AS generation
